In patent EP0052437A1, “Antibacterial compounds, processes for their preparation and compositions containing them” (BEECHAM GROUP PLC, priority 1980, dated 1982):
≈ marks a conversion by molar mass, not a printed value.

Tests used:
Format in all cases: cell-based
[1] = test system: M. suipneumoniae NCTC 10110; experiment: Anti-mycoplasmal in vitro MIC; conditions: Mesomycoplasma hyopneumoniae, NCTC10110, 144 h, Friis broth solidified with 0.9% agarose, 6 days incubation at 37°C
[2] = test system: Bord. bronchiseptica BO8; experiment: Veterinary bacteria MIC; conditions: Bordetella bronchiseptica, Diagnostic Sensitivity Test Agar, 18 hours at 37°C
Method: (§1) The values were determined using a two fold serial dilutions.in Diagnostic Sensitivity Test Agar with an inoculum of 10^4 organisms and incubation for 18 hours at 37°C.

[3] = test system: Bord. bronchiseptica BO9; experiment: Veterinary bacteria MIC; conditions: Bordetella bronchiseptica, Diagnostic Sensitivity Test Agar, 18 hours at 37°C
Method: as §1

[4] = test system: Corynebacterium pyogenes CY1; experiment: Veterinary bacteria MIC; conditions: Trueperella pyogenes, Diagnostic Sensitivity Test Agar, 18 hours at 37°C
Method: as §1

[5] = test system: S. dublin S7; experiment: Veterinary bacteria MIC; conditions: Salmonella enterica, Diagnostic Sensitivity Test Agar, 18 hours at 37°C
Method: as §1

[6] = test system: Past. multocida PA1; experiment: Veterinary bacteria MIC; conditions: Pasteurella multocida, Diagnostic Sensitivity Test Agar, 18 hours at 37°C
Method: as §1

[7] = test system: Staph. aureus Oxford; experiment: Veterinary bacteria MIC; conditions: Staphylococcus aureus, Diagnostic Sensitivity Test Agar, 18 hours at 37°C
Method: as §1

[8] = test system: Strep. suis (group D) SPS11; experiment: Veterinary bacteria MIC; conditions: Streptococcus suis, Diagnostic Sensitivity Test Agar, 18 hours at 37°C
Method: as §1

[9] = test system: E. Coli E1; experiment: Veterinary bacteria MIC; conditions: Escherichia coli, Diagnostic Sensitivity Test Agar, 18 hours at 37°C
Method: as §1

[10] = test system: Staph. aureus 152; experiment: Veterinary bacteria MIC; conditions: Staphylococcus aureus, Diagnostic Sensitivity Test Agar, 18 hours at 37°C
Method: as §1

[11] = test system: Strep. agalactiae SPA1; experiment: Veterinary bacteria MIC; conditions: Streptococcus agalactiae, Diagnostic Sensitivity Test Agar, 18 hours at 37°C
Method: as §1

[12] = test system: Past. haemolytica PA5; experiment: Veterinary bacteria MIC; conditions: Mannheimia haemolytica, Diagnostic Sensitivity Test Agar, 18 hours at 37°C
Method: as §1

[13] = test system: S. typhimurium S18; experiment: Veterinary bacteria MIC; conditions: Salmonella enterica, Diagnostic Sensitivity Test Agar, 18 hours at 37°C
Method: as §1

[14] = test system: Staph. aureus B4; experiment: Veterinary bacteria MIC; conditions: Staphylococcus aureus, Diagnostic Sensitivity Test Agar, 18 hours at 37°C
Method: as §1

[15] = test system: Strep. dysgalactiae SPD1; experiment: Veterinary bacteria MIC; conditions: Streptococcus dysgalactiae, Diagnostic Sensitivity Test Agar, 18 hours at 37°C
Method: as §1

[16] = test system: Strep. uberis SPU1; experiment: Veterinary bacteria MIC; conditions: Streptococcus uberis, Diagnostic Sensitivity Test Agar, 18 hours at 37°C
Method: as §1

[17] = test system: Past. multocida PA2; experiment: Veterinary bacteria MIC; conditions: Pasteurella multocida, Diagnostic Sensitivity Test Agar, 18 hours at 37°C
Method: as §1

[18] = test system: E. Coli NCTC 10418; experiment: Veterinary bacteria MIC; conditions: Escherichia coli, NCTC10418, Diagnostic Sensitivity Test Agar, 18 hours at 37°C
Method: as §1

[19] = test system: Erysipelothrix rhusiopathiae NCTC 8163; experiment: Veterinary bacteria MIC; conditions: NCTC8163, Diagnostic Sensitivity Test Agar, 18 hours at 37°C
Method: as §1

[20] = test system: M. suipneumoniae JF 435; experiment: Anti-mycoplasmal in vitro MIC; conditions: Mesomycoplasma hyopneumoniae, JF435, 144 h, Friis broth solidified with 0.9% agarose, 6 days incubation at 37°C
[21] = test system: M. hyorhinis ATCC 23234; experiment: Anti-mycoplasmal in vitro MIC; conditions: Mesomycoplasma hyorhinis, ATCC23234, 144 h, Friis broth solidified with 0.9% agarose, 6 days incubation at 37°C
[22] = test system: M. hyosynoviae ATCC 25591; experiment: Anti-mycoplasmal in vitro MIC; conditions: 144 h, Friis broth solidified with 0.9% agarose, 6 days incubation at 37°C
[23] = test system: M. suipneumoniae Str. 11; experiment: Anti-mycoplasmal in vitro MIC; conditions: Mesomycoplasma hyopneumoniae, 144 h, Friis broth solidified with 0.9% agarose, 6 days incubation at 37°C
[24] = test system: M. suipneumoniae PW/C/210; experiment: Anti-mycoplasmal in vitro MIC; conditions: Mesomycoplasma hyopneumoniae, 144 h, Friis broth solidified with 0.9% agarose, 6 days incubation at 37°C
[25] = test system: M. suipneumoniae NB12; experiment: Anti-mycoplasmal in vitro MIC; conditions: Mesomycoplasma hyopneumoniae, 144 h, Friis broth solidified with 0.9% agarose, 6 days incubation at 37°C
[26] = test system: M. bovigenitalium ATCC 14173; experiment: Anti-mycoplasmal in vitro MIC; conditions: 144 h, Friis broth solidified with 0.9% agarose, 6 days incubation at 37°C
[27] = test system: M. suipneumoniae TAM 6N; experiment: Anti-mycoplasmal in vitro MIC; conditions: Mesomycoplasma hyopneumoniae, TAM6N, 144 h, Friis broth solidified with 0.9% agarose, 6 days incubation at 37°C
[28] = test system: Staph. aureus Oxford; experiment: Human bacteria MIC; conditions: Staphylococcus aureus, nutrient agar with 5% chocolated horse blood, 18 hours at 37°C
Method: (§2) The values were determined by serial dilutions in nutrient agar with 5% chocolated horse blood after incubations for 18 hours at 37 °C.

[29] = test system: P. mirabilis 889; experiment: Human bacteria MIC; conditions: Proteus mirabilis, nutrient agar with 5% chocolated horse blood, 18 hours at 37°C
Method: as §2

[30] = test system: Pasteurella multocida 1633; experiment: Human bacteria MIC; conditions: nutrient agar with 5% chocolated horse blood, 18 hours at 37°C
Method: as §2

[31] = test system: Strep. faecalis I; experiment: Human bacteria MIC; conditions: Enterococcus faecalis, nutrient agar with 5% chocolated horse blood, 18 hours at 37°C
Method: as §2

[32] = test system: M. hyorhinis ATCC 25021; experiment: Anti-mycoplasmal in vitro MIC; conditions: Mesomycoplasma hyorhinis, ATCC25021, 144 h, Friis broth solidified with 0.9% agarose, 6 days incubation at 37°C
[33] = test system: M. suipneumoniae MS 16; experiment: Anti-mycoplasmal in vitro MIC; conditions: Mesomycoplasma hyopneumoniae, MS16, 144 h, Friis broth solidified with 0.9% agarose, 6 days incubation at 37°C
[34] = test system: M. pneumoniae ATCC 15492; experiment: Anti-mycoplasmal in vitro MIC; conditions: Mycoplasmoides pneumoniae, ATCC15492, 144 h, Friis broth solidified with 0.9% agarose, 6 days incubation at 37°C
[35] = test system: M. suipneumoniae LABER; experiment: Anti-mycoplasmal in vitro MIC; conditions: Mesomycoplasma hyopneumoniae, 144 h, Friis broth solidified with 0.9% agarose, 6 days incubation at 37°C
[36] = test system: M. dispar NCTC 10125; experiment: Anti-mycoplasmal in vitro MIC; conditions: 144 h, Friis broth solidified with 0.9% agarose, 6 days incubation at 37°C

## C/C(=C\C(=O)OCc1cccc(C#N)c1)CC1OCC(C/C=C/C(C)C(C)O)C(O)C1O (stereo not drawn) [Example 5, m-Cyanobenzyl monate C]
[1]
  MIC: 1 µg/mL (≈ 2.25 µM)
[2]
  MIC: > 80 µg/mL
[3]
  MIC: 20 µg/mL (≈ 45.1 µM)
[4]
  MIC: > 80 µg/mL
[5]
  MIC: > 80 µg/mL
[6]
  MIC: 10 µg/mL (≈ 22.5 µM)
[7]
  MIC: 2.5 µg/mL (≈ 5.64 µM)
[8]
  MIC: > 80 µg/mL
[9]
  MIC: > 80 µg/mL
[10]
  MIC: 2.5 µg/mL (≈ 5.64 µM)
[11]
  MIC: 2.5 µg/mL (≈ 5.64 µM)
[12]
  MIC: 40 µg/mL (≈ 90.2 µM)
[13]
  MIC: > 80 µg/mL
[14]
  MIC: 2.5 µg/mL (≈ 5.64 µM)
[15]
  MIC: 0.156 µg/mL (≈ 0.352 µM)
[16]
  MIC: 0.156 µg/mL (≈ 0.352 µM)
[17]
  MIC: 5 µg/mL (≈ 11.3 µM)
[18]
  MIC: > 80 µg/mL
[19]
  MIC: 80 µg/mL (≈ 180 µM)
[20]
  MIC: 1 µg/mL (≈ 2.25 µM)
[21]
  MIC: 0.5 µg/mL (≈ 1.13 µM)
[22]
  MIC: 0.5 µg/mL (≈ 1.13 µM)
[23]
  MIC: 0.5 µg/mL (≈ 1.13 µM)
[24]
  MIC: 0.5 µg/mL (≈ 1.13 µM)
[25]
  MIC: 0.5 µg/mL (≈ 1.13 µM)
[26]
  MIC: 0.1 µg/mL (≈ 0.225 µM)
[27]
  MIC: 1 µg/mL (≈ 2.25 µM)
[28]
  MIC: 2.5 µg/mL (≈ 5.64 µM)
[29]
  MIC: > 100 µg/mL
[30]
  MIC: 10 µg/mL (≈ 22.5 µM)
[31]
  MIC: > 100 µg/mL
[32]
  MIC: 0.5 µg/mL (≈ 1.13 µM)
[33]
  MIC: 0.5 µg/mL (≈ 1.13 µM)
[34]
  MIC: 5 µg/mL (≈ 11.3 µM)
[35]
  MIC: 0.5 µg/mL (≈ 1.13 µM)
[36]
  MIC: 0.1 µg/mL (≈ 0.225 µM)

## C/C(=C\C(=O)OCc1cc(C#N)cc(C#N)c1)CC1OCC(CC2OC2C(C)C(C)O)C(O)C1O (stereo not drawn) [Example 6, 3,5-Dicyanobenzyl monate A]
[1]
  MIC: 0.1 µg/mL (≈ 0.206 µM)
[2]
  MIC: 80 µg/mL (≈ 165 µM)
[3]
  MIC: 40 µg/mL (≈ 82.6 µM)
[4]
  MIC: > 80 µg/mL
[5]
  MIC: > 80 µg/mL
[6]
  MIC: 5 µg/mL (≈ 10.3 µM)
[7]
  MIC: 5 µg/mL (≈ 10.3 µM)
[8]
  MIC: 40 µg/mL (≈ 82.6 µM)
[9]
  MIC: > 80 µg/mL
[10]
  MIC: 5 µg/mL (≈ 10.3 µM)
[11]
  MIC: 0.625 µg/mL (≈ 1.29 µM)
[12]
  MIC: 10 µg/mL (≈ 20.6 µM)
[13]
  MIC: > 80 µg/mL
[14]
  MIC: 5 µg/mL (≈ 10.3 µM)
[15]
  MIC: 0.625 µg/mL (≈ 1.29 µM)
[16]
  MIC: 0.312 µg/mL (≈ 0.644 µM)
[17]
  MIC: 0.625 µg/mL (≈ 1.29 µM)
[18]
  MIC: > 80 µg/mL
[19]
  MIC: 80 µg/mL (≈ 165 µM)
[20]
  MIC: 0.1 µg/mL (≈ 0.206 µM)
[21]
  MIC: 0.05 µg/mL (≈ 0.103 µM)
[22]
  MIC: 0.1 µg/mL (≈ 0.206 µM)
[23]
  MIC: 0.05 µg/mL (≈ 0.103 µM)
[24]
  MIC: 0.05 µg/mL (≈ 0.103 µM)
[25]
  MIC: 0.1 µg/mL (≈ 0.206 µM)
[26]
  MIC: 0.025 µg/mL (≈ 0.0516 µM)
[27]
  MIC: 0.1 µg/mL (≈ 0.206 µM)
[28]
  MIC: 2.5 µg/mL (≈ 5.16 µM)
[29]
  MIC: 100 µg/mL (≈ 206 µM)
[30]
  MIC: 2.5 µg/mL (≈ 5.16 µM)
[31]
  MIC: 100 µg/mL (≈ 206 µM)
[32]
  MIC: 0.05 µg/mL (≈ 0.103 µM)
[33]
  MIC: 0.05 µg/mL (≈ 0.103 µM)
[34]
  MIC: 2.5 µg/mL (≈ 5.16 µM)
[35]
  MIC: 0.05 µg/mL (≈ 0.103 µM)
[36]
  MIC: 0.05 µg/mL (≈ 0.103 µM)
